Consider 1 molecule from US20150265614A1, “ORAL PREPARATION AND METHOD FOR PRODUCING THE SAME” (CHUNG-ANG UNIVERSITY INDUSTRY-ACADEMY COOPERATION FOUNDATION, priority 2012, published 2015).

The data set in a line: laser scattering particle size analysis of naproxen crystal particles. It is filed as physicochemical. As to conditions: HORIBA LA-910 laser scattering particle size analyzer. From the text: The sizes of the crystal particles of naproxen prepared in Examples 6 and 7 and Comparative Example 2 were observed. Specifically, the degree of dispersion of the particle sizes of a nonsteroidal anti-inflammatory drug (NSAID) agent naproxen ((+)-(S)-2-(6-methoxynaphthalen-2-yl)propanoic acid) was observed by using HORIBA LA-910 LASER SCATTERING PARTICLE SIZE ANALYZER. The observation results are each illustrated in FIGS. 16 to 18.

As for `COc1ccc2cc([C@H](C)C(=O)O)ccc2c1` [Comparative Example 2, (+)-(s)-2-(6-methoxynaphthalen-2-yl)propanoic acid], the “average particle diameter / average crystal size of naproxen” value was 9.5 μm.
